# Target: T1, flotillin-1 (Homo sapiens, UniProt O75955)
# T1 construct: we detected the palmitoylation levels of eight known palmitoylated proteins after treatment with 1; endogenous in cells; host or cells: HeLa
# T1 sequence (O75955 1-427): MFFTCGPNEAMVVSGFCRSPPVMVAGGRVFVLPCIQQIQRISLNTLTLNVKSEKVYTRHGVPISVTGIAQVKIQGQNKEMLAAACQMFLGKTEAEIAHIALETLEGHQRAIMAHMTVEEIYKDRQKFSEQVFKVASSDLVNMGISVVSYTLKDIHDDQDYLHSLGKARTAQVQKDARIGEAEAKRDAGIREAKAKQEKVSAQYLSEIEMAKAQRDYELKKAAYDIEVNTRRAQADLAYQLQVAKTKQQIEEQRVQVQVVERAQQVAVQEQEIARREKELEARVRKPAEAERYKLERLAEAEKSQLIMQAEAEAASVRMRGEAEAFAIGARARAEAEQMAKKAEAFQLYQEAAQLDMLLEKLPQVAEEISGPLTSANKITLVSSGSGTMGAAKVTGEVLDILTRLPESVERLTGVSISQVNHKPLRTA
# Test: Acyl resin-assisted capture detection of flotillin-1 palmitoylation in HeLa cells
# Assay type: cell-based
# Conditions: 1.25 μmol/10^7 cells, relative to vehicle
# Description: HeLa cells were grown to confluency in 10 cm plates. Stock solutions of compounds were prepared in DMSO as before and diluted to the final indicated concentration in 5.5 mL of OptiMEM media before adding to cells. Cells were incubated at 37° C. for 20 min and then media removed and 3 mL of HBSS added to each plate. Cells were detached using a cell scraper, pelleted by centrifugation at 1,000 rcf for 5 min and the pellet processed using a CAPTUREome S-Palmitoylated Protein Kit (Badrilla, UK) according to the manufacturer's protocol. Samples were resolved by electrophoresis using 4-20% SDS-polyacrylamide gels (Bio-Rad) under denaturing and reducing conditions. Proteins were then electrotransferred to a PVDF membrane (Bio-Rad). […]
# Assays were performed in 3 biological replicates. […] Western blots were analyzed using ImageJ^1. […]
smiles,measurement,value
"CCCCCCCCNC(=O)[C@@H](N)CS [compound 1, H2N-L-Cys-Oct]",reduction of palmitoylation level of flotillin-1,19-40%

# — US20210023065A1, “AMPHIPHILIC THIOL COMPOUNDS AND USES THEREOF” (THE REGENTS OF THE UNIVERSITY OF CALIFORNIA, priority 2018, published 2021)
